Experiments:
[1] = tested on: K. pneumoniae; test: Bacterial agglutination, FITC-labeled K. pneumoniae; conditions: 0.2 M mannose or 5 mM EDTA
Protocol: (§1) K. pneumoniae and E. coli DH5α (BCRC) were washed twice in 0.1 M sodium bicarbonate buffer (pH 9.6) and incubated with 0.1 mg/mL fluorescein isothiocyanate (FITC) at 37° C. in the dark. Each of 20 μg/mL of rTMD1, non-tagged rTMD1, mammalian rTMD1, and recombinant TM domains 2 and 3 (rTMD23) was co-incubated with FITC-labeled bacteria (1×10^5CFU/mL) in buffer (20 mM Tris, pH 7.4, 0.15 M NaCl, 5 mM CaCl2, 1 mg/mL BSA) with or without 0.2 M mannose or 5 mM EDTA. Samples were individually placed on a glass slide and fluorescently-labeled bacteria were observed microscopically to evaluate agglutination.

[2] = LPS binding assay (coated wells); set-up: species or system E. coli
Protocol: K. pneumoniae (3×10^5 CFU/well), E. coli O111:B4 smooth-type LPS (5 μg/well), or bovine serum albumin (BSA, 5 μg/well) in 100 μL of bicarbonate buffer (pH 9.6) were coated onto wells of high-binding microtiter plate (Corning Costar, Cambridge, Mass.). Nonspecific binding was blocked with binding buffer (20 mM Tris-HCl, pH 7.4, 0.15 M NaCl, 5 mM CaCl2) containing 50 mg/mL BSA. Various concentrations of rTMD proteins without or with CD14 (10 μg/mL; R&D Systems) in binding buffer containing 1 mg/mL BSA were added to wells and incubated for 2 hours. In some experiments, 0.2 M mannose, 5 mM EDTA, or Le^y were included in the binding buffer to compete with LPS and rTMD1 binding. Antibody against the c-Myc epitope of the rTMD proteins was added to wells and incubated for 2 hours, and peroxidase-labeled secondary antibody followed. Binding of rTMD proteins was detected by measuring absorbance at 450 nm.

[3] = tested on: E. coli DH5α; test: Bacterial agglutination, FITC-labeled E. coli DH5α; conditions: 0.2 M mannose or 5 mM EDTA
Protocol: as §1

[4] = target: T1, HMGB1 and rTMD1 interaction (Homo sapiens, UniProt P07204); test: Effect of Le^y on the binding of HMGB1 with rTMD1
T1 construct: TMD1 (residues Ala^1-Ala^155); 6xHis (C); enterokinase cutting site (internal); made in house
T1 sequence (P07204 19-173): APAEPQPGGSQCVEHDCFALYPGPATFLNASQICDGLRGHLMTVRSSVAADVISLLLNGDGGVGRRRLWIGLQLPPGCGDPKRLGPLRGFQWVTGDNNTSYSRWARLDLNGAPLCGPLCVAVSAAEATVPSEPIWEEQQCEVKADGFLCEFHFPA
T1 sequence (P09429 whole entry partner): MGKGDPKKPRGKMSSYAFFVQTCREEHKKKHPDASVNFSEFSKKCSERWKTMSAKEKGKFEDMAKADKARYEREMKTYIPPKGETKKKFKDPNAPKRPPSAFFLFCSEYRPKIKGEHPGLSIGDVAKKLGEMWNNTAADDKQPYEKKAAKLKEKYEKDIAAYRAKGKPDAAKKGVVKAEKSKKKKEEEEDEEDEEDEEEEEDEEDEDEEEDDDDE

[5] = tested on: rTMD1; test: Effect of Le^y on the blocking effect of rTMD1 on LPS-induced signaling pathways (Western blot); assay type: cell-based; conditions: rTMD1 20 μg/mL, LPS 100 ng/mL
Protocol: rTMD1 (0-50 μg/mL, equals 0-2.18 nmole/mL) pre-incubated without or with Escherichia coli (E. coli) LPS (LPS O111:B4, Sigma-Aldrich) in the absence or presence of Lewis Y (Le^y; Dextra Laboratories, Reading, UK) for 30 minutes was used to stimulate THP-1 or RAW 264.7 cells. Incubation period included 15 minutes for pIκB and IκB (B-9 and C-21, Santa Cruz Biotechnology, Santa Cruz, Calif., unless otherwise noted), 20 minutes for p38 (C-20) and pp38 (D-8), 30 minutes for ERK1/2 (K-23), pERK1/2 (E-4), lamin B2 (E-3, Zymed Laboratories, San Francisco, Calif.), NF-κB p50 (C-19) and NF-κB p65 nuclear translocation (C-20), and 24 hours for iNOS expression using a specific antibody (N-20).

[6] = target: T2, rTMD1 (Homo sapiens, UniProt P07204); test: rTMD1 ligand analysis (AlphaScreen); assay type: binding; conditions: mammalian- or Pichia-expressed rTMD1
T2 construct: TMD1 (residues Ala^1-Ala^155); made in house
T2 sequence (P07204 19-173): as the sequence (P07204 19-173) above
Protocol: Biotin-polyacrylamide (Biotin-PAA)-sugars (GlycoTech, Rockville, Mass.), rTMD1, rabbit anti-mouse IgG antibody (Zymed), mouse anti-6× His tag antibody (Abcam, Cambridge, UK), and streptavidin-coated donor and protein A conjugated acceptor beads (PerkinElmer, Boston, Mass.) were diluted with assay buffer containing 25 mM Tris (pH 7.0), 25 mM CaCl2, and 1 mg/mL BSA to appropriate concentrations. The anti-6× His tag antibody, rabbit anti-mouse IgG antibody, and acceptor beads were incubated with assay buffer for 1 hour at 25° C. before use (as the acceptor mixture). Biotin-PAA-sugars, rTMD1, and donor beads were separately added to wells of ProxiPlate-384 assay plates (PerkinElmer) and incubated at 25° C. for 1 hour. An aliquot of the acceptor mixture was then added to the wells and incubated at 25° C. for another 2 hours. The results were read on a PerkinElmer Envision instrument using the AlphaScreen program. All the procedures and incubations were carried out in the dark.

| Compound | effect on rTMD1 agglutination activity, K. pneumoniae [1] | effect on binding of rTMD1 to LPS ([2]; 0.2 M mannose or 5 mM EDTA, rTMD1 50 μg/mL) | effect on rTMD1 agglutination activity, E. coli DH5α [3] | effect on HMGB1 and rTMD1 interaction [4] | effect on blocking effects of rTMD1 on LPS-induced ERK1/2 phosphorylation, IκBα degradation, and NF-κB p50 and p65 nuclear translocation [5] | effect on binding of rTMD1 with LPS ([2]; various concentrations of Le^y, FIG. 6B) | rTMD1 affinity of carbohydrate ligand [6] |
| --- | --- | --- | --- | --- | --- | --- | --- |
| O=C(O)CN(CCN(CC(=O)O)CC(=O)O)CC(=O)O [EDTA, reference compound] | attenuated | inhibited | attenuated | – | – | – | – |
| Fucα1-2Galβ1-4(Fucα1-3)GlcNAc [Le^y] | – | – | – | could not abrogate | dose-dependently neutralize | specifically inhibited | specific ligand |

From patent publication US20120165244A1, “METHODS FOR BINDING LEWIS Y ANTIGEN” (priority 2008, published 2012)
